Source: PubChem BioAssay AID2060508 (Molecular Pharmacology Branch, DTP, NCI, 2025)

Test system: 454973-116-R2-J3-PDC spheroids, viability, % test/control
Assay: Anticancer human tumor 454973-116-R2-J3-PDC patient-derived pancreatic carcinoma cell line growth inhibition [GQUAD]
Conditions: spheroids with HUVEC and MSC; for IC50: curve of first compound; for viability, T/C: stronger effect = lower value
In short: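 Tumor cells were grown as complex spheroids with HUVEC endothelial cells and mesenchymal stem cells as stroma. G-quadruplex stabilizers were combined with targeted agents over half-log dilutions from near the clinical Cmax, or from 10 microM.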

[1] = second compound 0.0316 µM, first compound 0.0316 µM
[2] = second compound 0.0316 µM, first compound 0.1 µM
[3] = second compound 0.0316 µM, first compound 0.316 µM
[4] = second compound 0.0316 µM, first compound 1 µM
[5] = second compound 0.0316 µM, first compound 3.16 µM
[6] = second compound 0.0316 µM, first compound 10 µM
[7] = second compound 0.1 µM, first compound 0.0316 µM
[8] = second compound 0.1 µM, first compound 0.1 µM
[9] = second compound 0.1 µM, first compound 0.316 µM
[10] = second compound 0.1 µM, first compound 1 µM
[11] = second compound 0.1 µM, first compound 3.16 µM
[12] = second compound 0.1 µM, first compound 10 µM
[13] = second compound 0.316 µM, first compound 0.0316 µM
[14] = second compound 0.316 µM, first compound 0.1 µM
[15] = second compound 0.316 µM, first compound 0.316 µM
[16] = second compound 0.316 µM, first compound 1 µM
[17] = second compound 0.316 µM, first compound 3.16 µM
[18] = second compound 0.316 µM, first compound 10 µM
[19] = second compound 1 µM, first compound 0.0316 µM
[20] = second compound 1 µM, first compound 0.1 µM
[21] = second compound 1 µM, first compound 0.316 µM
[22] = second compound 1 µM, first compound 1 µM
[23] = second compound 1 µM, first compound 3.16 µM
[24] = second compound 1 µM, first compound 10 µM
[25] = second compound 3.16 µM, first compound 0.0316 µM
[26] = second compound 3.16 µM, first compound 0.1 µM
[27] = second compound 3.16 µM, first compound 0.316 µM
[28] = second compound 3.16 µM, first compound 1 µM
[29] = second compound 3.16 µM, first compound 3.16 µM
[30] = second compound 3.16 µM, first compound 10 µM
[31] = second compound 10 µM, first compound 0.0316 µM
[32] = second compound 10 µM, first compound 0.1 µM
[33] = second compound 10 µM, first compound 0.316 µM
[34] = second compound 10 µM, first compound 1 µM
[35] = second compound 10 µM, first compound 3.16 µM
[36] = second compound 10 µM, first compound 10 µM
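Further: spheroids exposed to compounds for seven days.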
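Wherever viability, T/C is given: 100% = DMSO vehicle control viability.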

For `CC(=O)O[C@H]1C(=O)[C@@]2(C)[C@H]([C@H](OC(=O)c3ccccc3)[C@]3(O)C[C@H](OC(=O)[C@H](O)[C@@H](NC(=O)c4ccccc4)c4ccccc4)C(C)=C1C3(C)C)[C@]1(OC(C)=O)CO[C@@H]1C[C@@H]2O` + Cc1[nH]c2ccc(F)cc2c1-c1nc2c3cccnc3c3ncccc3c2[nH]1, the IC50 (second compound 0.0316 µM) was under 0.0316 µM, the IC50 (second compound 0.1 µM) was under 0.0316 µM and the IC50 (second compound 0.316 µM) was under 0.0316 µM. For the same compound, the IC50 (second compound 1 µM) was under 0.0316 µM, the IC50 (second compound 3.16 µM) was under 0.0316 µM and the IC50 (second compound 10 µM) was under 0.0316 µM. For the same compound, the viability, T/C [1] was 15.2%, the viability, T/C [2] was 8.26% and the viability, T/C [3] was 7.28%. It also gave a viability, T/C [4] of 6.32%, a viability, T/C [5] of 7.13% and a viability, T/C [6] of 7.83%. It also gave a viability, T/C [7] of 14.5%, a viability, T/C [8] of 9.64% and a viability, T/C [9] of 7.87%. The viability, T/C [10] was 6.95%, the viability, T/C [11] was 7.87% and the viability, T/C [12] was 8.54%. It also gave a viability, T/C [13] of 14.6%, a viability, T/C [14] of 9.07% and a viability, T/C [15] of 5.61%. For the same compound, the viability, T/C [16] was 5.86%, the viability, T/C [17] was 5.85% and the viability, T/C [18] was 9.29%. It also gave a viability, T/C [19] of 12.3%, a viability, T/C [20] of 7.44% and a viability, T/C [21] of 6.58%. For the same compound, the viability, T/C [22] was 5.96%, the viability, T/C [23] was 7.37% and the viability, T/C [24] was 10.1%. The viability, T/C [25] was 11.1%, the viability, T/C [26] was 8.56% and the viability, T/C [27] was 7.65%. It also gave a viability, T/C [28] of 6.65%, a viability, T/C [29] of 6.16% and a viability, T/C [30] of 9.4%. The viability, T/C [31] was 12.5%, the viability, T/C [32] was 8.79% and the viability, T/C [33] was 7.16%. It also gave a viability, T/C [34] of 7.79%, a viability, T/C [35] of 7.84% and a viability, T/C [36] of 7.93%.

With `CCCS(=O)(=O)Nc1ccc(F)c(C(=O)c2c[nH]c3ncc(-c4ccc(Cl)cc4)cc23)c1F` + Cc1[nH]c2ccc(F)cc2c1-c1nc2c3cccnc3c3ncccc3c2[nH]1 the IC50 (second compound 0.0316 µM) was 5.97 µM, the IC50 (second compound 0.1 µM) was 5.65 µM and the IC50 (second compound 0.316 µM) was 6.27 µM. It also gave an IC50 (second compound 1 µM) of 6.3 µM, an IC50 (second compound 3.16 µM) of 6.45 µM and an IC50 (second compound 10 µM) of 6.4 µM. The viability, T/C [1] was 114%, the viability, T/C [2] was 117% and the viability, T/C [3] was 127%. For the same compound, the viability, T/C [4] was 116%, the viability, T/C [5] was 101% and the viability, T/C [6] was 8.25%. For the same compound, the viability, T/C [7] was 112%, the viability, T/C [8] was 118% and the viability, T/C [9] was 113%. It also gave a viability, T/C [10] of 118%, a viability, T/C [11] of 92.7% and a viability, T/C [12] of 8.04%. The viability, T/C [13] was 112%, the viability, T/C [14] was 107% and the viability, T/C [15] was 102%. The viability, T/C [16] was 113%, the viability, T/C [17] was 113% and the viability, T/C [18] was 9.5%. It also gave a viability, T/C [19] of 104%, a viability, T/C [20] of 102% and a viability, T/C [21] of 114%. It also gave a viability, T/C [22] of 128%, a viability, T/C [23] of 115% and a viability, T/C [24] of 8.32%. The viability, T/C [25] was 109%, the viability, T/C [26] was 115% and the viability, T/C [27] was 114%. The viability, T/C [28] was 98.6%, the viability, T/C [29] was 112% and the viability, T/C [30] was 13.3%. For the same compound, the viability, T/C [31] was 107%, the viability, T/C [32] was 101% and the viability, T/C [33] was 116%. The viability, T/C [34] was 110%, the viability, T/C [35] was 106% and the viability, T/C [36] was 14.4%.
